In PubChem BioAssay AID1996:
In brackets after ≈: the same amount, converted by molar mass.

Details: buffer; pH 7.4; 200.0 µM
Cc1cc(C)c(NC(=O)CSCc2c(C)noc2C)c(C)c1 gave a solubility kinetic of 28.1 µg/mL (≈ 88.2 µM).
With COc1ccc(CN2CCCN(C)CC2)c(OC)c1C the solubility kinetic was 26.8 µg/mL (≈ 96.3 µM).
With Cc1oncc1C(=O)Nc1ccc2ccccc2c1 the solubility kinetic was 9.8 µg/mL (≈ 38.8 µM).
In the case of COc1cccc(/C=C/C(=O)OCC(=O)Nc2cccc(S(=O)(=O)NC3=NCCCCC3)c2)c1, the solubility kinetic is reported as 13.5 µg/mL (≈ 27.8 µM).
With Cn1c(Cl)cnc1C(O)(c1ccccc1)c1ccccc1 the solubility kinetic was 10.2 µg/mL (≈ 34.1 µM).
N=C1S/C(=C\c2ccco2)C(=O)N1c1nccs1 gave a solubility kinetic of 17.9 µg/mL (≈ 64.5 µM).
Work on O=C(Nc1cccnc1)c1ccc(Cl)cc1[N+](=O)[O-] yielded a solubility kinetic greater than 41.7 µg/mL.
With O=C(Nc1cccnc1)c1cc(-c2ccccc2O)on1 the solubility kinetic was 1.3 µg/mL (≈ 4.62 µM).
Work on CC1(CO)COC2(OC1)C(=O)Nc1ccccc12 (stereo not drawn) yielded a solubility kinetic greater than 37.4 µg/mL.
With Cn1cnnc1SCC(=O)NC1CCCC1 the solubility kinetic was greater than 36 µg/mL.
Work on Cc1ccc(C(=O)OCC(=O)NCCc2ccc(S(N)(=O)=O)cc2)o1 yielded a solubility kinetic greater than 55 µg/mL.
In the case of Brc1ccc(-c2cnco2)cc1, the solubility kinetic is reported as 2.2 µg/mL (≈ 9.82 µM).
In the case of Nc1ccc2nc(-c3ccccc3)c(-c3ccccc3)nc2c1, the solubility kinetic is reported as 25.7 µg/mL (≈ 86.4 µM).
Cn1cc(/C=C(\C#N)C(=O)Nc2ccccc2O)c2ccccc21 gave a solubility kinetic of less than 0.2 µg/mL.
COc1ccc(C(=O)Nc2nc3ccc(OC)cc3s2)cc1 gave a solubility kinetic of 1.4 µg/mL (≈ 4.45 µM).
For CCCc1cc(C(=O)Nc2ccc(F)c(Cl)c2)no1, the solubility kinetic was 1.5 µg/mL (≈ 5.31 µM).
CCOC(=O)N1CCN(C(=O)c2ccccc2NC(C)=O)CC1 showed a solubility kinetic greater than 47.9 µg/mL.
Molecule Cc1ccc(N2CCN(C(=O)Nc3cccc([N+](=O)[O-])c3)CC2C)cc1 (stereo not drawn) has a solubility kinetic of 22 µg/mL (≈ 62.1 µM).
Cc1cnc(C(=O)OCc2cc(=O)n3c(C)cccc3n2)cn1 showed a solubility kinetic greater than 46.5 µg/mL.
COC(=O)C(NC(=O)c1ccccc1C(=O)O)c1ccc2ccccc2c1 (stereo not drawn) gave a solubility kinetic greater than 54.5 µg/mL.
CC(C(=O)Nc1ccc(C#N)cc1)N(C)CC(=O)N(C)c1c(N)n(Cc2ccccc2)c(=O)[nH]c1=O (stereo not drawn) gave a solubility kinetic greater than 73.4 µg/mL.
For Clc1ccccc1C(c1ccccc1)(c1ccccc1)n1ccnc1, the solubility kinetic was 3.7 µg/mL (≈ 10.7 µM).
Cc1cc(C(=O)COC(=O)c2cccn2C)c(C)n1Cc1ccco1 showed a solubility kinetic of 2.8 µg/mL (≈ 8.23 µM).
With O=C(c1ccc(Cl)cc1)C1CCN(Cc2ccccc2)CC1 the solubility kinetic was greater than 47.1 µg/mL.
In the case of CN(C)CCNC(=O)Nc1ccc(F)cc1F, the solubility kinetic is reported as greater than 36.5 µg/mL.
In the case of CC1CCc2sc(C(=O)OCC(=O)NC(N)=O)cc2C1 (stereo not drawn), the solubility kinetic is reported as 2 µg/mL (≈ 6.75 µM).
For O=C(CNC(=O)c1ccc(Br)cc1)NCc1cccnc1, the solubility kinetic was 49.3 µg/mL (≈ 142 µM).
In the case of O=C(CCl)Nc1sccc1C(=O)c1ccccc1, the solubility kinetic is reported as 3.6 µg/mL (≈ 12.9 µM).
Cc1ccc(NC(=O)COc2ccc3c(c2)OCO3)c(C)c1 gave a solubility kinetic of 6.1 µg/mL (≈ 20.4 µM).
Work on CC(=O)c1sc(NC(=O)COc2ccccc2)nc1C yielded a solubility kinetic of 5.7 µg/mL (≈ 19.6 µM).
With O=S(=O)(Nc1ccc(N2CCCCC2)cc1)c1ccccc1F the solubility kinetic was 12 µg/mL (≈ 35.9 µM).
Work on O=C(Nc1cccc(NC(=O)c2cccs2)c1)c1ccc(F)cc1 yielded a solubility kinetic of less than 0.4 µg/mL.
COc1ccc(CCN)cc1O.Cl gave a solubility kinetic greater than 30.6 µg/mL.
In the case of O=C(O)CNS(=O)(=O)c1ccc2c3c(cccc13)C(=O)N2, the solubility kinetic is reported as greater than 45.9 µg/mL.
Work on COc1ccc(NC(=O)c2ccccc2NC(=O)C2CC=CCC2C(=O)O)cc1 (stereo not drawn) yielded a solubility kinetic greater than 59.2 µg/mL.
CC1CC(=O)Nc2ccccc2N1C(=O)Nc1ccccc1 (stereo not drawn) showed a solubility kinetic of 30.2 µg/mL (≈ 102 µM).
Molecule Cc1cc(C(=O)OCC(=O)Nc2ccccc2C#N)c(C)o1 has a solubility kinetic of 8.9 µg/mL (≈ 29.8 µM).
With S=C(NCc1ccco1)N1CCN(C/C=C/c2ccccc2)CC1 the solubility kinetic was greater than 51.2 µg/mL.
CCc1ccc(C2C(C#N)=C(N)Oc3cc(N)ccc32)cc1 (stereo not drawn) gave a solubility kinetic of 2.4 µg/mL (≈ 8.24 µM).
C=C[C@]1(C)C[C@@H](OC(=O)CSCCN(CC)CC)[C@]2(C)C(C)CC[C@]3(CCC(=O)[C@H]32)[C@@H](C)[C@@H]1O (stereo partly drawn) gave a solubility kinetic of 64.9 µg/mL (≈ 131 µM).
In the case of COCCNC(=O)Cn1nc(-c2ccccc2F)ccc1=O, the solubility kinetic is reported as greater than 45.8 µg/mL.
For CCOP(=O)(OCC)C(Nc1ccccc1)c1cccnc1 (stereo not drawn), the solubility kinetic was greater than 48 µg/mL.
In the case of O=C(COc1ccccc1Cl)NCc1ccccc1, the solubility kinetic is reported as 20.6 µg/mL (≈ 74.7 µM).
COc1nc(-c2ccccc2)ncc1S(=O)(=O)c1ccccc1 showed a solubility kinetic of less than 0.3 µg/mL.
Cc1ccc2c(c1)C(O)(CC(=O)c1cccc(-n3cccc3)c1)C(=O)N2 (stereo not drawn) gave a solubility kinetic of 7.2 µg/mL (≈ 20.8 µM).
With CCCN(CCC)C(=O)CC(c1ccccc1)c1ccco1 (stereo not drawn) the solubility kinetic was greater than 44.9 µg/mL.
Cc1c(C#N)c(NC(=O)C(C)C)n(Cc2ccccc2)c1C showed a solubility kinetic of 8.1 µg/mL (≈ 27.4 µM).
Molecule O=C(c1ccc([N+](=O)[O-])cc1)N1CCc2ccccc21 has a solubility kinetic of 1 µg/mL (≈ 3.73 µM).
For COc1cccc(NC(=O)c2cc3ccccc3o/c2=N\O)c1, the solubility kinetic was 22.2 µg/mL (≈ 71.5 µM).
With O=C(NCc1cccc(C(F)(F)F)c1)c1ccc[nH]1 the solubility kinetic was greater than 40.2 µg/mL.
For Cc1ccc(C(=O)NCCNC(=O)c2ccccc2)cc1, the solubility kinetic was greater than 42.4 µg/mL.
With Cc1ccc(N2Cc3ccccc3C2=O)cc1 the solubility kinetic was 7.8 µg/mL (≈ 34.9 µM).
With O=[N+]([O-])/C=C\c1ccc(N2CCOCC2)cc1 the solubility kinetic was 16.5 µg/mL (≈ 70.4 µM).
CC(=O)Nc1ccc(S(=O)(=O)N(C#N)c2nc(C)cc(C)n2)cc1 showed a solubility kinetic greater than 51.8 µg/mL.
Molecule COc1ccc(C/C(N)=N/OC(=O)c2ccc(Cl)cc2)cc1 has a solubility kinetic of 0.6 µg/mL (≈ 1.88 µM).
In the case of COc1ccc(NC(=O)c2ccc([N+](=O)[O-])o2)cc1, the solubility kinetic is reported as 23.4 µg/mL (≈ 89.2 µM).
Molecule O=C(OCC(=O)c1ccc[nH]1)c1cncc(Br)c1 has a solubility kinetic of 24.2 µg/mL (≈ 78.3 µM).
Cc1ccc2c(c1)=C/C(=C\c1c(O)[nH]c(=O)[nH]c1=O)C(=O)N=2 showed a solubility kinetic of less than 0.2 µg/mL.
